Assay results published in publication PMC7665123, “In Vitro Anti-Inflammatory Activity in Arthritic Synoviocytes of A. brachypoda Root Extracts and Its Unusual Dimeric Flavonoids” (Molecules, 2020).

What was measured:
[1] = tested on: IL-6 release from IL-1β activated HFLS; test: IL-6 release by ELISA in IL-1β activated human fibroblast-like synoviocytes; assay type: cell-based; settings: for inhibition at 25 µM: compounds at 25 µM = 13 µg/mL, read-out: Inhibition of IL-6 release at highest non-toxic concentration (%); for IC50: isolated compounds; for Fold higher activity (IC50) compared to compound 1 / DCMAB: IC50 comparison
Protocol: Hip synovial membrane was collected from three male adult patients with clinical osteoarthritis (OA) at the time of hip replacement surgery. […] Once collected, tissue samples were processed, according to previously described protocols. […] After overnight culture, non-adherent cells were removed. At confluence, cells were trypsinized and passaged to 75 cm^2 culture flasks (Corning, NY, USA) in complete medium containing 10% fetal bovine serum. […] All cellular assays were performed from passage 3 to 9. Experiments were conducted twice per donor (n = 6).
All tested compounds were dissolved in a dimethyl sulfoxide (DMSO) stock solution and further diluted in culture medium. Final concentration of DMSO in vehicle of tested concentrations was 0.01%. After 1 h incubation, cells were activated by addition of IL-1β (1 µg/mL) (R&D Systems, Bio-Techne, Abingdon, UK) with subsequent incubation for 23 h. All supernatants were kept at −80 °C, before further testing. Remaining adherent cells were tested for viability using the cell proliferation reagent WST-1 (Roche, Basel, Switzerland), according to the supplier instructions. Pro-inflammatory cytokine IL-6 release in cell supernatant was assessed by ELISA. […] All samples were diluted 90 times. Experiments were conducted twice per donor (n = 6).
In this study, data are presented as mean values ± standard deviation (S.D.). All analyses were performed using GraphPad Prism 8.3 software. IC50 values were determined using a nonlinear fitting of a log (inhibitor concentration) vs response variable slope for each donor’s data set. Consequent values were then averaged. After confirming the data normal distribution and homogeneity of variances (Brown-Forsythe and Welch; Shapiro-Wilk, D’Agostino-Pearson and Anderson-Darling), statistical analysis was performed using a two-way ANOVA with a Bonferroni multiple comparisons test. Significance was determined at alpha level 0.05. Significance values represented are * p < 0.05, ** p < 0.009 and ns for non-significance.

[2] = tested on: human fibroblast like synoviocytes (HFLS); test: In vitro cytotoxicity (WST-1 cell viability) in HFLS; assay type: cell-based; settings: 24 h, tested 3-100 µM
Protocol: Hip synovial membrane was collected from three male adult patients with clinical osteoarthritis (OA) at the time of hip replacement surgery. This protocol was conducted under the approval of the local Ethics Committee (CCER, Geneva, Switzerland) (Authorization #2017-02234) and with informed and consenting patients. Once collected, tissue samples were processed, according to previously described protocols. Briefly, samples were finely minced and digested for 3 h (37 °C, 5% CO2 incubation) in a 3 mg/mL collagenase IX-RPMI 1640 solution. After centrifugation (200× g) and supernatant removal, the resuspended pellet was cultured (37 °C, 5% CO2) in medium containing RPMI 1640, M199 (1:1), 1% penicillin/streptomycin (100 IU/mL:100 µg/mL), 2 mM L-glutamine and 20% fetal bovine serum. After overnight culture, non-adherent cells were removed. At confluence, cells were trypsinized and passaged to 75 cm^2 culture flasks (Corning, NY, USA) in complete medium containing 10% fetal bovine serum. A double control was performed to confirm presence of HFLS after isolation: visual morphology evaluation (Figure S3) and flow cytometry with synoviocyte specific surface markers ([…] and VCAM-1). […] All cellular assays were performed from passage 3 to 9. Experiments were conducted twice per donor (n = 6).
Confluent HFLS cells (25,000 cells/well) were treated in a 96-well plate with compounds 1, 2, and 3 (3 µM, 6 µM, 12 µM, 25 µM, 50 µM, and 100 µM), HEAB and DCMAB (increasing concentrations from 3 to 100 µg/mL), or control vehicle for 1 h. All tested compounds were dissolved in a dimethyl sulfoxide (DMSO) stock solution and further diluted in culture medium. Final concentration of DMSO in vehicle of tested concentrations was 0.01%. After 1 h incubation, cells were activated by addition of IL-1β (1 µg/mL) (R&D Systems, Bio-Techne, Abingdon, UK) with subsequent incubation for 23 h. All supernatants were kept at −80 °C, before further testing. […] Pro-inflammatory cytokine IL-6 release in cell supernatant was assessed by ELISA. […]

[3] = Homo sapiens, IL-1β activated HFLS, 24 h
[4] = Homo sapiens, IL-1β activated HFLS, 24 h, n = 6
[5] = Homo sapiens, µM values transformed into µg/mL

| Structure (SMILES) | inhibition at 25 µM [1, 3] | IC50 [1, 4] | IC50 [1, 5] | Fold higher activity (IC50) compared to compound 1 / DCMAB [1] | Concentration at which cytotoxicity / loss of viability occurs [2] | inhibition at 50 µM ([1]; Homo sapiens, 50 µM, non-significant) |
| --- | --- | --- | --- | --- | --- | --- |
| COc1ccc(C=CC2c3c(OC)cc(O)cc3OC3c4c(OC)cc(O)cc4OC(c4ccccc4)C23)cc1 (stereo not drawn) [Compound 2, brachydin B] | 80 ± 9% | 17 ± 3 µM | 9 ± 3 µg/mL | 3 fold | 50 µM |  |
| COc1cc(O)cc2c1C(C=Cc1ccccc1)C1C(c3ccccc3)Oc3cc(O)cc(OC)c3C1O2 (stereo not drawn) [Compound 3, brachydin C] | 94 ± 5% | 19 ± 3 µM | 10 ± 3 µg/mL | 3 fold | 50 µM |  |
| COc1cc(O)cc2c1C(C=Cc1ccc(O)cc1)C1C(c3ccccc3)Oc3cc(O)cc(OC)c3C1O2 (stereo not drawn) [Compound 1, brachydin A] | 10 ± 11% | 62 ± 2 µM | 33 ± 2 µg/mL |  | 100 µM | 24% |
